US10131663B2, “Chemical compounds” (AstraZeneca AB, priority 2016, dated 2018)
Converted amounts (≈) assume the structure as drawn.

Columns and labels:
hERG potassium channel = hERG potassium channel (Homo sapiens (Human), UniProt Q12809); assay: hERG binding assay (automated patch clamp, CHO cells); format: cell-based; details: CHO cell line, Nanion Syncropatch 384PE
Outline: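 CHO cells on automated patch clamp; compounds tested in quadruplicate. Currents evoked every 15 s from −80 mV holding by a 500 ms step to 60 mV then 500 ms to −40 mV.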

[1] = biological target: T1, Estrogen Receptor (ERα) in MCF-7 cells (Homo sapiens (Human), UniProt P03372); assay: Western blotting assay, ER down-regulation in MCF-7; format: cell-based; details: 100 nM compound, 48 h, normalised to 100 nM fulvestrant
T1 sequence (P03372 whole entry): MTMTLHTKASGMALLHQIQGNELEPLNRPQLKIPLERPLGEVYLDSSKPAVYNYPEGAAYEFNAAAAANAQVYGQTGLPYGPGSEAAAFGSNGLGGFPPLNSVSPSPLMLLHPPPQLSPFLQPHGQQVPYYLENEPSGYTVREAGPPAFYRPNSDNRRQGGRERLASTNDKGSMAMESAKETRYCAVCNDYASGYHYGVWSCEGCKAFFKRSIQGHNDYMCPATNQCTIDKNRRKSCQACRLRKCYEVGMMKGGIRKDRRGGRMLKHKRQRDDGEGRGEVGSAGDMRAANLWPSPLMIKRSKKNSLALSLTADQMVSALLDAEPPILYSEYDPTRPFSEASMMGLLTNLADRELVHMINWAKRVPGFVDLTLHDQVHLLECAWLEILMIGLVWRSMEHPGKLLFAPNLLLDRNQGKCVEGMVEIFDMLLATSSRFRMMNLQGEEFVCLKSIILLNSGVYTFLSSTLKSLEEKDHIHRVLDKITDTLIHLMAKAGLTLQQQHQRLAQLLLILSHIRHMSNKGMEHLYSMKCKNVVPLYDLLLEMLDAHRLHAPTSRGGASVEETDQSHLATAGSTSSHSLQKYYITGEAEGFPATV
Procedure: (§1) Cells were incubated with compounds (100 nM) or vehicle control (0.1% DMSO) for 48 h at 37° C., 5% CO2 before washing once with PBS and lysing with 80 μl lysis buffer (25 mM Tris/HCl, 3 mM EDTA, 3 mM EGTA, 50 mM NaF, 2 mM sodium orthovanadate, 0.27 M sucrose, 10 mM β-glycerophosphate, 5 mM sodium pyrophosphate, 0.5% TritonX-100, pH 6.8) on ice.
(§2) Samples were boiled for 10 min at 95° C. and then frozen at −20° C. until ready for use.
(§3) The blot was stained with Ponceau S (P7170, Sigma) and cut according to appropriate molecular weight markers.
(§4) Membranes were blocked for 1 hour at room temp in 5% Marvel (w/v) in phosphate-buffered saline containing 0.05% Tween™ 20 (PBS/Tween). Blots were then incubated with anti-ERα (SP1) rabbit monoclonal antibody (Thermofisher) diluted 1:1000 at 4° C. overnight (with gentle shaking) followed by several washes with PBS/Tween. […] All antibodies were made up in 5% Marvel (w/v) in PBS/Tween.
(§5) Down-regulation of the ERα receptor was normalised to the vehicle control (0% down-regulation) and the 100 nM fulvestrant control (100% down-regulation) run within the same gel.

[2] = Thermodynamic solubility (shake-flask); format: physicochemical; details: aqueous phosphate buffer, 25 °C, pH 7.4, aqueous buffer, thermodynamic from solid, aqueous phosphate buffer pH 7.4, 24 hours
Outline: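 Shake-flask method starting from 10 mM DMSO stocks, which are dried before use. Residue equilibrated 24 h at 25° C. in aqueous phosphate buffer, pH 7.4. Dissolved fraction separated and quantified by UPLC/MS/MS, with QC samples in each run.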

[3] = biological target: estrogen receptor (ERα) in CAMA-1 cells (Homo sapiens (Human), UniProt P03372); assay: Western blotting assay, ER down-regulation in CAMA-1; format: cell-based; details: 100 nM compound, 48 h, normalised to 100 nM fulvestrant
estrogen receptor (ERα) in CAMA-1 cells, sequence (P03372 whole entry): as above
Procedure: as §1, §2, §3, §4, §5

[4] = Human plasma protein binding (equilibrium dialysis); format: in vitro ADME; details: dialysis 18 hours
Outline: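 Fraction unbound (fu %) in human plasma, from LC/MSMS of plasma and buffer sides (7-point plasma calibration) after 18 h rapid equilibrium dialysis. Single determinations, with compounds pooled up to 10 per plasma pool.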

[5] = Human Caco-2 bidirectional permeability A to B and B to A; format: in vitro ADME; details: for Papp at 2 h: Caco-2, 2 hours, pH 7.4
Procedure: An automated assay was used to determine the bidirectional permeability (efflux and uptake) of compounds in Caco-2 cells carried out over 2 hours at pH 7.4.
The efflux ratio (ER) can be determined using the following equation: ER=Papp(B-A)/Papp(A-B) Where Papp (B-A) indicates the apparent permeability coefficient in basolateral to apical direction, and Papp (A-B) indicates the apparent permeability coefficient in apical to basolateral direction. Human Caco-2 Passive Permeability A to B Papp

[6] = log D (shake flask, 1-octanol/aqueous buffer); format: physicochemical
Outline: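 Distribution between 1-octanol and aqueous buffer at pH 7.4 was measured by shake flask, with compounds run in mixtures of ten. Relative concentrations in each phase were quantified by UPLC with quantitative MS. Caffeine served as a low-log D QC sample in all runs.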

ERα receptor = ERα receptor (Homo sapiens (Human), UniProt P03372); details: 500 mg monthly dose; cited from earlier work
ERα receptor, sequence (P03372 whole entry): as above

[7] = biological target: T1, Estrogen Receptor (ERα) in MCF-7 cells; assay: MCF-7 ER down-regulation assay (immuno-fluorescence); format: cell-based
Outline: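 Compounds dispensed acoustically from DMSO stocks onto MCF-7 cells; cells fixed 20 min at room temperature, then automated immunostaining for ERα with overnight incubation at 4° C. Read-out is mean total ER fluorescence intensity normalized to cell number (intensity per cell), with curve fitting for concentration-response values.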

[8] = biological target: recombinant human Estrogen Receptor alpha ligand binding domain (ER alpha-LBD (GST)) (Homo sapiens (Human), UniProt P03372); assay: ERα binding assay (LanthaScreen TR-FRET competition); details: TR-FRET, displacement of Fluormone ES2
recombinant human Estrogen Receptor alpha ligand binding domain (ER alpha-LBD (GST)), sequence (P03372 307-554): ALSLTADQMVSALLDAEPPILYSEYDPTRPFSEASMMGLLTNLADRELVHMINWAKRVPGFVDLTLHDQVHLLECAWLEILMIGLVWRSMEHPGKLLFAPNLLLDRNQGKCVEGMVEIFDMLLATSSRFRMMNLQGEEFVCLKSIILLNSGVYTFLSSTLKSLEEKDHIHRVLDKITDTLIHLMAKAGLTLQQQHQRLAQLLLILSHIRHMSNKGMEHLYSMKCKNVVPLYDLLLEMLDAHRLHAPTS
Outline: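 Competition binding to GST-tagged human ERα ligand-binding domain, read by LanthaScreen TR-FRET: Tb-anti-GST antibody labels the receptor and compounds displace a fluorescent tracer, lowering the signal. IC50 was taken from dose-response curve fitting.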

[9] = Human Caco-2 passive permeability A to B Papp; format: in vitro ADME; details: apical pH 6.5, basolateral pH 7.4, efflux inhibitor cocktail
Procedure: An automated assay was used to determine the passive permeability of compounds in Caco-2 cell monolayers carried out over 2 hours with an apical pH of 6.5 and basolateral pH of 7.4. The Caco-2 AB inhibition assay is carried out with chemical inhibition of the three major efflux transporters ABCB1 (P-gp), ABCG2 (BCRP) and ABCC2 (MRP2) in Caco-2 cells. Incubation of both apical and basolateral is carried out with a cocktail of inhibitors (50 μM quinidine, 20 μM sulfasalazine and 100 μM benzbromarone). Samples were analyzed through LC/MS/MS to estimate the apparent permeability coefficients (Papp) of compounds across Caco-2 cell monolayers and results are quoted in units of ×10^−6 cm/s.

[10] = Human hepatocyte assay (metabolic stability); format: in vitro ADME; details: human hepatocytes
Procedure: The metabolic stability of compounds in human hepatocytes was assessed using the following protocol: • 1. Prepare 10 mM stock solutions of compound and control compounds in appropriate solvent (DMSO). Place incubation medium (L-15 Medium) in a 37° C. water bath, and allow warming for at least 15 minutes prior to use. • 2. Add 80 μL of acetonitrile to each well of the 96-well deep well plate (quenching plate). • 3. In a new 96-well plate, dilute the 10 mM test compounds and the control compounds to 100 μM by combining 198 μL of acetonitrile and 2 μL of 10 mM stock. • 4. Remove a vial of cryopreserved (less than −150° C.) human hepatocytes (LiverPool™ 10 Donor Human hepatocytes obtained from Celsis IVT. Chicago, Ill. (Product No. S01205)) from storage, ensuring that vials remain at cryogenic temperatures until thawing process ensues. As quickly as possible, thaw the cells by placing the vial in a 37° C. water bath and gently shaking the vials. Vials should remain in water bath until all ice crystals have dissolved and are no longer visible. After thawing is complete, spray vial with 70% ethanol, transfer the vial to a bio-safety cabinet. • 5. Open the vial and pour the contents into the 50 mL conical tube containing thawing medium. Place the 50 mL conical tube into a centrifuge and spin at 100 g for 10 minutes. […] Using Cellometer® Vision, count cells and determine the viable cell density. Cells with poor viability (<80% viability) are not acceptable for use. […] Transfer 247.5 μL of hepatocytes into each well of a 96-well cell culture plate. Place the plate on Eppendorf Thermomixer Comfort plate shaker to allow the hepatocytes to warm for 10 minutes. • 8. Add 2.5 μL of 100 μM test compound or control compounds into an incubation well containing cells, mix to achieve a homogenous suspension at 0.5 min, which when achieved, will define the 0.5 min time point. At the 0.5 min time, transfer 20 μL of incubated mixture to wells in a “Quenching plate” followed by vortexing. • 9. Incubate the plate at 37° C. at 900 rpm on an Eppendorf Thermomixer Comfort plate shaker. […] Centrifuge the quenching plates for 20 minutes at 4,000 rpm. 4 different compounds are pooled into one cassette and used for LC/MS/MS analysis.
All calculations were carried out using Microsoft Excel. Peak areas were determined from extracted ion chromatograms. In vitro intrinsic clearance (in vitro Clint, in […]) of parent compound was determined by regression analysis of the Ln percent parent disappearance vs. time curve.
V=incubation volume (0.25 mL);
N=number of hepatocytes per well (0.25×10^6 cells).

[11] = 1-octanol/aqueous buffer, pH 7.4, pH 7.4, 1-octanol/aqueous buffer
[12] = pH 7.4, 1-octanol/aqueous buffer

hERG potassium channel, sequence (Q12809 whole entry): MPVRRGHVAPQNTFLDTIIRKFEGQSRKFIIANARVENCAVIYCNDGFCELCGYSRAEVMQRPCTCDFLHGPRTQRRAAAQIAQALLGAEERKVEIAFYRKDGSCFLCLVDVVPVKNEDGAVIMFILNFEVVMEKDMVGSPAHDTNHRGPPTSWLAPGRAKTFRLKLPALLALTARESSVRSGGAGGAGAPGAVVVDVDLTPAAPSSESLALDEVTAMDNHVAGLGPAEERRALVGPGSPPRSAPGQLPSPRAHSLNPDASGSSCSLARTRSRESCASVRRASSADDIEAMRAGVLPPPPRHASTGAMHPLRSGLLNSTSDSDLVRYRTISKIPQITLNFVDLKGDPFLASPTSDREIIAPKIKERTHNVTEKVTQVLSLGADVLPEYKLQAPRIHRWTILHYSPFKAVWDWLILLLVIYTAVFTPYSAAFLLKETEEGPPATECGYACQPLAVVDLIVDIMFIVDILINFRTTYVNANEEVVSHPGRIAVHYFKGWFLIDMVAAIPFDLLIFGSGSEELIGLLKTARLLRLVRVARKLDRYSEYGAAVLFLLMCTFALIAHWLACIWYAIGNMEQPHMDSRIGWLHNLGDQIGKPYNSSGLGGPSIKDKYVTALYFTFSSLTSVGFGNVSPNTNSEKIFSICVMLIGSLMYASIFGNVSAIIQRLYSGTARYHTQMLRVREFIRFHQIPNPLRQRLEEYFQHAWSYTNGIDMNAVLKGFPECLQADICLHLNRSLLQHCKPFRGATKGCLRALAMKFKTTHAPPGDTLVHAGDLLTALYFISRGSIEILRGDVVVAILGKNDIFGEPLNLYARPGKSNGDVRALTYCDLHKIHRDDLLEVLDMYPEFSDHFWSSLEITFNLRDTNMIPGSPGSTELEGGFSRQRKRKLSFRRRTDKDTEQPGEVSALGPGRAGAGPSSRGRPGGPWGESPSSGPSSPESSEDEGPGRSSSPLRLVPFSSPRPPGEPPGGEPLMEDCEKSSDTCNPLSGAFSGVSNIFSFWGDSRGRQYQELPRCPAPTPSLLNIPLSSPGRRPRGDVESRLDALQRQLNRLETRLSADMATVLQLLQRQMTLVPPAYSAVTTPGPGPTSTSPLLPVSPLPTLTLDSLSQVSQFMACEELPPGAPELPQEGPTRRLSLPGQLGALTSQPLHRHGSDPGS

| Structure (SMILES) | IC50 (hERG potassium channel) [nM] | MCF7 Western % ER deg vs Fv [1] [%] | solubility at 24 h [2] [µM] | CAMA1 Western % ER deg vs Fv [3] [%] | Human plasma protein binding (% free) [4] [% free] | Papp at 2 h [5] [×10⁻⁶ cm/s] | logD [6, 11] | turnover of the receptor in patient samples (ERα receptor) | IC50 [7] [nM] | IC50 [8] [nM] | logD [6, 12] | Papp at 2 h [9] [×10⁻⁶ cm/s] | hepatocyte CLint at 1 µM [10] [µL/min/1e6 cells] | efflux ratio at 2 h ([5]; Caco-2, pH 7.4) |
| --- | --- | --- | --- | --- | --- | --- | --- | --- | --- | --- | --- | --- | --- | --- |
| C[C@@H]1Cc2c(ccc3[nH]nc(F)c23)[C@@H](c2ccc(NC3CN(CCCF)C3)cn2)N1CC(F)(F)F [Example 32] | 14000 | 89 | 692 (≈ 342 µg/mL) | 89 | 6.5 | 3.4 | 3.5 |  |  |  |  |  |  |  |
| C[C@]12CC[C@@H]3c4ccc(O)cc4C[C@@H](CCCCCCCCC[S+]([O-])CCCC(F)(F)C(F)(F)F)[C@H]3[C@@H]1CC[C@@H]2O (stereo partly drawn) [Fulvestrant, fulvestrant] |  |  |  |  |  |  |  | less than 50% |  |  |  |  |  |  |
| C[C@@H]1Cc2c(ccc3[nH]ncc23)[C@@H](c2ncc(OC3CN(CCCF)C3)cc2F)N1CC(F)(F)CO [Example 59, 2,2-difluoro-3-((6S,8R)-6-(3-fluoro-5-((1-(3-fluoropropyl)azetidin-3-yl)oxy)pyridin-2-yl)-8-methyl-3,6,8,9-tetrahydro-7H-pyrazolo[4,3-f]isoquinolin-7-yl)propan-1-ol] | > 40000 | 104 | 971 (≈ 493 µg/mL) | 102 | 33 |  | 2.4 |  | 1.6 | 7.2 |  |  |  |  |
| C[C@@H]1Cc2c(ccc3[nH]ncc23)[C@@H](c2ccc(N(C)C3CN(CCCF)C3)cn2)N1CC(F)(F)F [Example 34, N-(1-(3-fluoropropyl)azetidin-3-yl)-N-methyl-6-((6S,8R)-8-methyl-7-(2,2,2-trifluoroethyl)-6,7,8,9-tetrahydro-3H-pyrazolo[4,3-f]isoquinolin-6-yl)pyridin-3-amine] | 7700 | 85 | 471 (≈ 231 µg/mL) | 82 | 15 |  |  |  | 0.22 | 1.9 | 3.2 |  |  |  |
| C[C@@H]1Cc2c(ccc3[nH]ncc23)[C@@H](c2ccc(NC3CN(CCCF)C3)c(F)n2)N1CC(F)(F)F [Example 29, 2-fluoro-N-(1-(3-fluoropropyl)azetidin-3-yl)-6-((6S,8R)-8-methyl-7-(2,2,2-trifluoroethyl)-6,7,8,9-tetrahydro-3H-pyrazolo[4,3-f]isoquinolin-6-yl)pyridin-3-amine] |  |  | 779 (≈ 385 µg/mL) |  | 16 | 12 |  |  |  |  | 3 | 24 |  |  |
| C[C@@H]1Cc2c(ccc3[nH]ncc23)[C@@H](c2c(F)cc(NC3CN(CCCF)C3)cc2F)N1CC(F)(F)CO [Example 5, 3-((6S,8R)-6-(2,6-difluoro-4-((1-(3-fluoropropyl)azetidin-3-yl)amino)phenyl)-8-methyl-3,6,8,9-tetrahydro-7H-pyrazolo[4,3-f]isoquinolin-7-yl)-2,2-difluoropropan-1-ol] | 13000 | 99 | 297 (≈ 155 µg/mL) | 109 | 8.6 |  | 3.3 |  | 0.077 | 2.2 |  |  |  |  |
| C[C@@H]1Cc2c(ccc3[nH]ncc23)[C@@H](c2c(F)cc(NC3CN(CCCF)C3)cc2F)N1CC1(F)CC1 [Example 11, N-(3,5-difluoro-4-((6S,8R)-7-((1-fluorocyclopropyl)methyl)-8-methyl-6,7,8,9-tetrahydro-3H-pyrazolo[4,3-f]isoquinolin-6-yl)phenyl)-1-(3-fluoropropyl)azetidin-3-amine] |  |  | 186 (≈ 93.3 µg/mL) |  | 2 | 1.6 | 3.9 |  | 0.094 | 20 |  |  | 7 | 1.4 |
